Experimental data published in patent US20070015827A1, “Methods and compositions for treating ophthalmic conditions via serum retinol, serum retinol binding protein (RBP), and/or serum retinol-RBP modulation” (Sytera, Inc., priority 2005, published 2007).
Entries after “also recorded” stand apart in the source; their conditions may differ.

Assays:
Format in all cases: in vivo, mouse
abca4 null mutant mice [1] = test: A2E and A2PE-H2 in eyes after chronic treatment (HPLC)
Experimental: Tissue Extraction. Eye samples were thawed on ice in 1 ml of PBS, pH 7.2 and homogenized by hand using a Duall glass-glass homogenizer. The sample was further homogenized following the addition of 1 ml chlorofomm/methanol (2:1, v/v). The sample was transferred to a boroscilicate tube and lipids were extracted into 4 mls of chloroform. The organic extract was washed with 3 mls PBS, pH 7.2 and the samples were then centrifuged at 3,000×g, 10 min. The choloroform phase was decanted and the aqueous phase was re-extracted with another 4 mls of chloroform. Following centrifugation, the chloroform phases were combined and the samples were taken to dryness under nitrogen gas. Samples residues were resuspended in 100 μl hexane and analyzed by HPLC as described below.
HPLC Analysis. Chromatographic separations were achieved on an Agilent Zorbax Rx-Sil Column (5 μm, 4.6×250 mm) using an Agilent 1100 series liquid chromatograph equipped with fluorescence and diode array detectors. The mobile phase (hexane/2-propanol/ethanol/25 mM KH2PO4, pH 7.0/acetic acid; 485/376/100/50/0.275, v/v) was delivered at 1 ml/min. Sample peak identification was made by comparison to retention time and absorbance spectra of authentic standards. Data are reported as peak fluorescence (L.U.) obtained from the fluorescence detector.
We initiated a one-month study to evaluate the effects of HPR on reduction of A2E and A2E precursors in abca4 null mutant mice. HPR was administered in DMSO (20 mg/kg, ip) to abca4 null mutant mice (BL6/129, aged 2 months) daily for a period of 28 days. Control age/strain matched mice received only the DMSO vehicle. Mice were sampled at 0, 14, and 28 days (n=3 per group), the eyes were enucleated and chloroform-soluble constituents (lipids, retinoids and lipid-retinoid conjugates) were extracted. Mice were sacrificed by cervical dislocation, the eyes were enucleated and individually snap frozen in cryo vials. The sample extracts were then analyzed by HPLC with on-line fluorescence detection. Results from this study show remarkable, early reductions in the A2E precursor, A2PE-H2, see FIG. 4a, and subsequent reductions in A2E, see FIG. 4b. […] A similar study may be undertaken to ascertain effects of HPR treatment on the electroretinographic and morphological phenotypes.
ABCA4 null mutant mice were given the indicated dose of HPR in DMSO or DMSO alone daily for 28 days (n=16 mice per treatment group). At study onset, mice in the 2.5 mg/kg group were 2 months of age, mice in the other treatment groups were 3 months of age. At the indicated times, representative mice were taken from each group (n =4) for analysis of A2E precursor compounds (see FIG. 10, A2PE-H2, panels A, C and E) and A2E (see FIG. 10, panels B, D and F). Eyes were enucleated, hemisected and lipid soluble components were extracted from the posterior pole by chloroform/methanol-water phase partitioning. Sample extracts were analyzed by LC. Identity of the eluted compounds was confirmed by UV-vis absorption spectroscopy and co-elution of sample peaks with authentic standards. Note: limitations in appropriately age and strain-matched mice in the 10 mg/kg group prevented analysis at the 14-day interval.
Extraction and Analysis of Retinoids and A2E. Steady-state levels of retinoids and A2E in eyecups of ABCA4−/− mice were determined following daily administration (28 days) of HPR (FIG. 12). Mice were sacrificed, the eyes enucleated, and the posterior portion of each eye was used for extraction of retinoids or A2E. Methodologies used for extraction of retinoids and A2E from eye tissue and HPLC analysis techniques have been described. See, e.g., Mata N L, Weng J, Travis G H. Biosynthesis of a major lipofuscin fluorophore in mice and humans with ABCR-mediated retinal and macular degeneration. Proc Natl Acad Sci USA. 2000; 97:7154-7159; Weng J, et al.; Cell. 1999;98:13-23; Mata N L, et al.; Invest. Ophthalmol. Visual Sci. 2001; 42:1685-1690. […]

abca4 null mutant mice [2] = test: Serum retinol after 28 days of daily HPR (LC/MS, HPLC); settings: for effect on serum retinol (in words): ABCA4 null mice
Experimental: ABCA4 null mutant mice were given the indicated dose of HPR in DMSO (i.p.) daily for 28 days (n=4 mice per dosage group). At the end of the study period, blood samples were taken and serum was prepared. Following acetonitrile precipitation of serum proteins, the concentrations of retinol and HPR were determined from the soluble phase by LC/MS (see FIG. 7). Identity of the eluted compounds was confirmed by UV-vis absorption spectroscopy and co-elution of sample peaks with authentic standards.
Analysis of Serum Retinol. Whole blood was collected from tail veins of HPR-treated mice 18 hrs. following the final HPR dose (i.e., at day 28). Serum was obtained from whole blood following centrifugation at 1,500×g, 10 min. Serum proteins were precipitated with the addition of an equivolume of ice-cold acetonitrile and centrifugation (10,000×g, 10 min). An aliquot was removed from the soluble phase and analyzed by HPLC using an Agilent 1100 series capillary liquid chromatograph equipped with a diode-array detector. Chromatography was performed on a Zorbax SB C18 5 μm column (150×0.5 mm) equilibrated with acetonitrile/water/glacial acetic acid (80:18:2, v/v) at a flow rate of 10 μl/min.

[3] = Steady-state retinoid levels and visual chromophore regeneration after 28 days of HPR; settings: abca4 -/- (knockout line; background strain not stated), mouse, RPE tissue, intraperitoneal, HPR 10 mg/kg, read-out: HPR present within RPE tissue
Experimental: (§1) Both steady-state retinoid levels and rates of visual chromophore regeneration were evaluated in abca4 −/− mice following a 28-day treatment period with 10 mg/kg HPR. Light-adapted levels of all visual cycle retinoids were reduced by ˜50% compared to control animals receiving only DMSO (FIG. 16A). Although HPR was present within RPE tissue (˜10 μM), the rate of rhodopsin regeneration (FIG. 16B) and removal of bleached photoproduct (Figure 16C) were not affected. The calculated time constant for regeneration of visual chromophore was nearly identical for both DMSO- and HPR-treated mice (0.37 h time constant to fully regenerate visual chromophore, FIG. 16D).
(§2) Panels D-F of FIG. 9 are electrophysiological measurements of rod function (panel D), rod and cone function (panel E) and recovery from photobleaching (panel F).

abca4 −/− mice = test: as above
Experimental: as §1, §2

In the case of CC1=C(/C=C/C(C)=C/C=C/C(C)=C/C(=O)Nc2ccc(O)cc2)C(C)(C)CCC1 [HPR, N-(4-hydroxyphenyl)retinamide], the “reduction in A2PE-H2” value (abca4 null mutant mice [1]; HPR 2.5 mg/kg daily, 28 days, 2-month old mice) is reported as about 47%, the “less A2E accumulated compared to DMSO littermates” value (abca4 null mutant mice [1]; HPR 10 mg/kg daily, 28 days) is reported as about 50% and the “reduction of A2E” value (abca4 null mutant mice [1]; HPR 20 mg/kg ip daily, 28 days) is reported as 55%. The “reduction of A2PE-H2” value (abca4 null mutant mice [1]; HPR 20 mg/kg ip daily, 28 days) was 70%, the “accumulation of A2E and lipofuscin autofluorescence in the RPE (in words)” value (abca4 null mutant mice [1]; mouse, in vivo) was “arrested accumulation” and the “effect on serum retinol (in words)” value (abca4 null mutant mice [2]) was “profound reductions”. The “effect on serum retinol (in words)” value (abca4 null mutant mice [2]; listed as Fenretinide) was “potently and reversibly reduces”, the “effect on serum retinol (in words)” value (abca4 null mutant mice [2]; listed as fenretinide) was “lowered serum retinol levels” and the serum retinol reduction (abca4 null mutant mice [2]; HPR 2.5 mg/kg daily, 28 days) was 20%. The “reduction of RBP-retinol in the circulation” value (abca4 null mutant mice [2]; HPR 10 mg/kg daily, 28 days) was about 50%, the concentration at 28 days [3] was about 10 µM and the “removal of bleached photoproduct” value (abca4 −/− mice; HPR 10 mg/kg) was “not affected”. For the same compound, the “regeneration of visual chromophore (rate of rhodopsin regeneration)” value (abca4 −/− mice; HPR 10 mg/kg daily) was “not affected; also recorded: does not affect; also recorded: normal” and the “calculated time constant to fully regenerate visual chromophore” value (abca4 −/− mice; HPR 10 mg/kg, nearly identical for DMSO) was 0.37 h.
